Experimental findings from EP0860438B1, “Fluorine-containing diphenyl acrylamide antimicrobial agents” (Shenyang Research Institute of Chemical Industry, priority 1997, dated 1998) are described below.

Where two headings read alike, the source gives them in different places.

As usually defined, the inhibition is the relative decrease from the control value, in per cent.

In experiment [1] the test system is cucumber downy mildew. The experiment in a line: Indoor comparison with currently available antimicrobial agents, therapeutic effect (Example 12). Format: in vivo, Pseudoperonospora cubensis. Conditions: seedling of yellow melon.
The test system of experiment [2] is cucumber downy mildew. The experiment is described as follows: Indoor comparison with currently available antimicrobial agents, protective effect (Example 12). In kind it is in vivo, Pseudoperonospora cubensis. Conditions: seedling of yellow melon.
Experiment [3] has as its system cucumber downy mildew. The experiment is described as follows: Indoor therapeutic test against cucumber downy mildew (Example 10). The conditions noted are these: treated 24 hours after inoculation, examined a week later.
Experimental: (§1) Concentration of test Compound 1 (content was 9% in emulsion oil) was set at 250, 200, 150, 100 and 75 ppm. Dimethomorph (American Cyanamid) 150 ppm was used as the control. Healthy seedling of yellow melon was selected for use, and test was run three times. For protection test, treatment was carried out on September 17, 1995, and they were inoculated 24 hours later. For the therapeutic test, inoculation was made on September 18, and then they were treated 24 hours later. Examination was made a week later, and results were recorded in 9 grades, and disease index and protection effect were calculated.
Experiment [4] has as its system cucumber downy mildew (Pseudoperonospora cubensis). The experiment in a line: Test for inhibition of spore germination in cucumber downy mildew. Format: cell-based.
Experiment [5] has as its system cucumber downy mildew. The experiment is described as follows: Indoor protection test against cucumber downy mildew (Example 10). Conditions: inoculated 24 hours after treatment, examined a week later.
Experimental: as §1
The next experiment deals with late blight of tomato. Format: in vivo. The conditions noted are these: three treatments, examined on June 20, field.
For experiment [6], the system named is Downy mildew. The experiment in a line: Indoor comparison with Dimethomorph, test for protection (Example 11). The conditions noted are these: seedling of yellow melon, 2 - 3 leaf stage.
Text: (§2) Test was divided into test for therapy and test for protection. Concentration of two chemicals (Compound 1 and Dimethomorph) was set at 150 and 100 ppm, and each treatment was run three times. A blank control was set separately. Samples were selected from seedling of yellow melon in the 2 - 3 leaf stage. Method of treatment and study was the same as before.
The subject of experiment [7] is Downy mildew. The experiment in a line: Indoor comparison with Dimethomorph, test for therapy (Example 11). The conditions noted are these: seedling of yellow melon, 2 - 3 leaf stage.
Text: as §2
The subject of experiment [8] is cucumber downy mildew. The experiment in a line: Field therapeutic test against cucumber downy mildew (Example 14). Format: in vivo, Pseudoperonospora cubensis. The conditions noted are these: three treatments, examined on June 3. The procedure: Therapeutic effect (field test).
Field therapeutic test of the compound 1 against cucumber downy mildew was carried out in a farm at a village near Shenyang City.
Concentration of the Compound 1 (20% wettable powder) was set at 100, 200 and 300 ppm. Chlor 1500 ppm was used as the control, and blank control was set separately also. Each treatment was repeated three times. First treatment was made on May 13, second treatment was made on May 20, and third treatment was made on May 27, and protective effect was examined on June 3.

The subject of experiment [9] is cucumber downy mildew. The experiment in a line: Field protection test against cucumber downy mildew (Example 13). Format: in vivo, Pseudoperonospora cubensis. Further details: Disease index: scale not given here. The procedure:
Protective action (field test).
Field protection test against cucumber downy mildew was carried out in the farm at a village near Shenyang City. Concentration of the Compound 1 (20% wettable powder) was set at 200, 400 and 600 ppm. Concentration of Previcur (66.5% hydrate ) which was used as the control, was set at 800, 1000 and 1200 ppm. And, a blank control was set separately also. Each treatment was run 4 times. Samples were taken for examination. […] First examination of protective effect was made on April 22. The second examination of protective effect was made on April 29, and the third examinatnion of protective effect was made on May 5.

Where [10] appears, read: Pseudoperonospora cubensis, 24 h, read-out: % Inhibition of spore.

For `[Al]#[P]` [Aluminium phosphide, aluminium phosphide, reference compound], the “Therapeutic effect (%)control” value with cucumber downy mildew [1] (1000 ppm) amounted to 40.0%. For the same compound, the “Protective effect/preventive (%)control” value in the experiment on cucumber downy mildew [2] (1000 ppm) amounted to 75.0%.

With `N#Cc1c(Cl)c(Cl)c(Cl)c(C#N)c1Cl` [Chlorothalonil, reference compound], the “Therapeutic effect (%)control” value in the experiment with cucumber downy mildew [1] (1000 ppm) was 75.0%. Further, the “Protective effect/preventive (%)control” value with cucumber downy mildew [2] (1000 ppm) came out at 90.0%.

`COc1ccc(/C(=C\C(=O)N2CCOCC2)c2ccc(F)cc2)cc1OC` [Compound 1]: the “Therapeutic effect (%)control” value worked out at 0.0% with cucumber downy mildew [1] (25 ppm); 40.0% in the experiment with cucumber downy mildew [1] (50 ppm); 60.0% in the experiment with cucumber downy mildew [1] (75 ppm); 75.0% with cucumber downy mildew [1] (100 ppm); 90.0% with cucumber downy mildew [1] (200 ppm); 63% in the experiment on Downy mildew [7] (100 ppm). Further, the “Therapeutic effect (%)control” value with Downy mildew [7] (150 ppm) was 74%. The “Therapeutic (%)control” value in the experiment on cucumber downy mildew [3] (75 ppm) came to 78.8%; in the experiment on cucumber downy mildew [3] (100 ppm), 84.6%; in the experiment with cucumber downy mildew [3] (150 ppm) it was 100%; with cucumber downy mildew [3] (200 ppm), 98.1%; in the experiment with cucumber downy mildew [3] (250 ppm), 100%. The “Therapeutic Disease index” value turned out to be 0.11 in the experiment on cucumber downy mildew [3] (75 ppm); 0.08 in the experiment with cucumber downy mildew [3] (100 ppm); 0 with cucumber downy mildew [3] (150 ppm); 0.01 in the experiment on cucumber downy mildew [3] (200 ppm); 0 in the experiment with cucumber downy mildew [3] (250 ppm). Moreover, the “% Spore germination” value in experiment [4] (25 ppm, 25°C, after 24 hours) came to 23.1%; in [4] (50 ppm, 25°C, after 24 hours), 4.3%; in experiment [4] (100 ppm, 25°C, after 24 hours), 1.6%. The “Number of spores germinated” value in experiment [4] (25 ppm, 25°C, after 24 hours) amounted to 198; in [4] (50 ppm, 25°C, after 24 hours), 45; in experiment [4] (100 ppm, 25°C, after 24 hours), 17. Further, the “Number of ungerminated spores” value came out at 660 in [4] (25 ppm, 25°C, after 24 hours); 990 in [4] (50 ppm, 25°C, after 24 hours); 1044 in experiment [4] (100 ppm, 25°C, after 24 hours). Further, the inhibition at 25 ppm in experiment [4] (setting [10]) was determined as 65.2%. Besides, the inhibition at 50 ppm in [4] (setting [10]) stood at 93.5%. Besides, the inhibition at 100 ppm in experiment [4] (setting [10]) is 97.6%. Further, the “Protection (%)control” value in the experiment with cucumber downy mildew [5] (75 ppm) is 92.5%; in the experiment on cucumber downy mildew [5] (100 ppm), 100%; with cucumber downy mildew [5] (150 ppm) it was 100%; with cucumber downy mildew [5] (200 ppm) it was 100%; in the experiment with cucumber downy mildew [5] (250 ppm), 100%. The “Protection Disease index” value in the experiment with cucumber downy mildew [5] (75 ppm) turned out to be 0.03; in the experiment with cucumber downy mildew [5] (100 ppm) it was 0; with cucumber downy mildew [5] (150 ppm), 0; in the experiment with cucumber downy mildew [5] (200 ppm), 0; with cucumber downy mildew [5] (250 ppm) it was 0. The Disease index was 5.56 in the experiment on late blight of tomato (200 ppm); 2.59 with late blight of tomato (400 ppm); 2.22 in the experiment on late blight of tomato (600 ppm); 0.049 in the experiment on cucumber downy mildew [8] (100 ppm); 0.011 in the experiment on cucumber downy mildew [8] (200 ppm); 0 in the experiment on cucumber downy mildew [8] (300 ppm). For the same compound, the Disease index in the experiment with cucumber downy mildew [9] (200 ppm, April 22) came out at 0; in the experiment on cucumber downy mildew [9] (200 ppm, April 29), 0; with cucumber downy mildew [9] (200 ppm, May 5) it was 0.03; with cucumber downy mildew [9] (400 ppm, April 22), 0; in the experiment with cucumber downy mildew [9] (400 ppm, April 29), 0; in the experiment with cucumber downy mildew [9] (400 ppm, May 5) it was 0. Besides, the Disease index in the experiment on cucumber downy mildew [9] (600 ppm, April 22) stood at 0; with cucumber downy mildew [9] (600 ppm, April 29) it was 0; with cucumber downy mildew [9] (600 ppm, May 5) it was 0. In addition, the “Protective (%)control” value in the experiment on late blight of tomato (200 ppm) is 80.9%; in the experiment on late blight of tomato (400 ppm) it was 91.1%; in the experiment with late blight of tomato (600 ppm), 94.9%; in the experiment with cucumber downy mildew [9] (200 ppm, April 22) it was 100%; in the experiment with cucumber downy mildew [9] (200 ppm, April 29) it was 100%; in the experiment with cucumber downy mildew [9] (200 ppm, May 5) it was 97.0%. The “Protective (%)control” value in the experiment on cucumber downy mildew [9] (400 ppm, April 22) turned out to be 100%; with cucumber downy mildew [9] (400 ppm, April 29), 100%; in the experiment on cucumber downy mildew [9] (400 ppm, May 5) it was 100%; in the experiment on cucumber downy mildew [9] (600 ppm, April 22), 100%; in the experiment on cucumber downy mildew [9] (600 ppm, April 29), 100%; in the experiment with cucumber downy mildew [9] (600 ppm, May 5), 100%. Moreover, the “Protective effect/preventive (%)control” value turned out to be 40.0% in the experiment on cucumber downy mildew [2] (25 ppm); 60.0% in the experiment on cucumber downy mildew [2] (50 ppm); 75.0% with cucumber downy mildew [2] (75 ppm); 90.0% in the experiment on cucumber downy mildew [2] (100 ppm); 100.0% in the experiment with cucumber downy mildew [2] (200 ppm). The “Protective effect (%)control” value with Downy mildew [6] (100 ppm) was 93%; in the experiment with Downy mildew [6] (150 ppm), 95%; in the experiment with cucumber downy mildew [8] (100 ppm), 88.4%; with cucumber downy mildew [8] (200 ppm), 97.4%; in the experiment with cucumber downy mildew [8] (300 ppm), 100%. Further, the “Protective effect Disease index” value in the experiment with Downy mildew [6] (100 ppm) was 0.07; in the experiment with Downy mildew [6] (150 ppm), 0.05. The “Therapeutic effect Disease index” value in the experiment on Downy mildew [7] (100 ppm) was found to be 0.37; in the experiment on Downy mildew [7] (150 ppm), 0.26.

In the case of `COc1ccc(C(=CC(=O)N2CCOCC2)c2ccc(Cl)cc2)cc1OC` [Dimethomorph, reference compound], in the experiment with cucumber downy mildew [3] (150 ppm), the “Therapeutic (%)control” value is on record as 63.5% and the “Therapeutic Disease index” value came out at 0.19. In [4] (50 ppm, 25°C, after 24 hours), the “% Spore germination” value came to 38.2%, the “Number of spores germinated” value was 208 and the “Number of ungerminated spores” value was 336. In [4] (Pseudoperonospora cubensis, 50 ppm, 25°C, after 24 hours, read-out: % Inhibition of spore), the inhibition at 50 ppm was 42.5%. In addition, in the experiment with cucumber downy mildew [5] (150 ppm), the “Protection (%)control” value was 100% and the “Protection Disease index” value worked out at 0. Besides, in the experiment on Downy mildew [6] (100 ppm), the “Protective effect (%)control” value is reported as 61% and the “Protective effect Disease index” value is listed as 0.39. In addition, in the experiment on Downy mildew [6] (150 ppm), the “Protective effect (%)control” value is 79% and the “Protective effect Disease index” value worked out at 0.21. Also, in the experiment on Downy mildew [7] (100 ppm), the “Therapeutic effect (%)control” value was 2% and the “Therapeutic effect Disease index” value stood at 0.98. Besides, in the experiment on Downy mildew [7] (150 ppm), the “Therapeutic effect (%)control” value is recorded as 24% and the “Therapeutic effect Disease index” value was determined as 0.76.

Regarding `COCC(=O)N(c1c(C)cccc1C)C(C)C(=O)OC` (stereo not drawn) [metalaxyl, reference compound], the “Therapeutic effect (%)control” value in the experiment on cucumber downy mildew [1] (500 ppm) came out at 40.0%. In the experiment on cucumber downy mildew [2] (500 ppm), the “Protective effect/preventive (%)control” value came out at 60.0%.
